In publication PMC10002517, “Inhibition of Transglutaminase 2 as a Therapeutic Strategy in Celiac Disease—In Vitro Studies in Intestinal Cells and Duodenal Biopsies” (International Journal of Molecular Sciences, 2023):

Assays:
[1] = target: T1, human transglutaminase 2 (TG2) (Homo sapiens, UniProt P21980); test: TG2-mediated cross-linking (transamidation) of pepsin-/trypsin-digested gliadin (PTG) on immobilized TG2; assay type: biochemical; conditions: for TG2-mediated cross-linking of PTG: 10 nM TG2 coated, 10 µg/mL PTG, 1 h 37 °C, normalized to TG2 without inhibitor, mean ± SD, n = 4
T1 construct: purchased Zedira, Darmstadt, Germany T034
T1 sequence (P21980 1-687): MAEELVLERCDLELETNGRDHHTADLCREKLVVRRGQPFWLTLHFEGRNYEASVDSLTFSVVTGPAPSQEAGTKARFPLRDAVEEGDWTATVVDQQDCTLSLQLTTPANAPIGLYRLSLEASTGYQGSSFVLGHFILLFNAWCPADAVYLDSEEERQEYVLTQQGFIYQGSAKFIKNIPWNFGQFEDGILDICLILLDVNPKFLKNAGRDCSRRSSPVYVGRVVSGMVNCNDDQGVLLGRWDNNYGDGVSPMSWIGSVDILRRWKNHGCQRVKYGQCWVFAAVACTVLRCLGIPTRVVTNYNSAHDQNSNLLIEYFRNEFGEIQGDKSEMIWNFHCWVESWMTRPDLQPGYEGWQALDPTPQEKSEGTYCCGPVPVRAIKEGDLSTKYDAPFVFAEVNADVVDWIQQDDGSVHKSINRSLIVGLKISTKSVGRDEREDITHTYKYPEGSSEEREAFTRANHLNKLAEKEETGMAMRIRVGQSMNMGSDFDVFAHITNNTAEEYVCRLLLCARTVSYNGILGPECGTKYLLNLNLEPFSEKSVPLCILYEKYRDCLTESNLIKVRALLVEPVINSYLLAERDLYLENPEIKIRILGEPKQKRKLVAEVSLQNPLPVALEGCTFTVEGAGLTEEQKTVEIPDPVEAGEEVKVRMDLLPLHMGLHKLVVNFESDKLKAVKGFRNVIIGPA
Description: A tissue-culture-treated 96-well plate (83.3924, Sarstedt, Nümbrecht, Germany) was coated for 1 h at 37°C with 10 nM TG2 (T034, Zedira, Darmstadt, Germany) in 50 mM Tris, 1 mM EDTA, 5 mM CaCl2 (pH 7.5) buffer containing 10 mM DTT. After three washes with PBS, the plate was blocked with 2% bovine serum albumin (BSA, Carl Roth GmbH, Karlsruhe, Germany) in PBS for 30 min at room temperature. Then, incubation with 10 µg/mL of pepsin-/trypsin-digested gliadin (PTG, T004, Zedira) ± inhibitors was performed for 1 h at 37 °C. After three washes with PBS, the primary antibody directed against gliadin (1:1000, clone XGY4, Zedira) was applied in BSA 2% at 4 °C overnight on an orbital shaker. The next day, the secondary antibody directed against mouse IgG (1:1000; sc-516102, Santa Cruz Biotechnology, Dallas, TX, USA) was incubated in BSA 2% for 1 h at room temperature on an orbital shaker. After three washes with phosphate buffered saline (PBS), the HRP-substrate TMB (tetramethylbenzidine, Sigma-Aldrich, Darmstadt, Germany) was added (100 µL per well). Photometric quantitation at 655 nm was performed after 15 min using a Clariostar Plus (BMG Labtech, Ortenberg, Germany) microplate reader.

Caco-2 cells = test: Resazurin-based cell viability assay (PrestoBlue HS); design: species or system human; conditions: confluent Caco-2 cells, 24 h in medium, n = 3
Description: The cell viability of Caco-2 cells was examined using PrestoBlue HS (A13261, (Thermo Fisher Scientific). In brief, Caco-2 cells (7–8 days after confluency) were incubated with PX-12 or ERW1041 at the indicated concentrations for 24 h in full medium. As a positive control, cells were incubated with 4% PFA for 10 min. After washing with PBS, cells were incubated with PrestoBlue HS diluted 1:10 in culture medium for 2 h at 37 °C. Fluorometric examination was conducted using a Clariostar Plus (no well scan mode, bottom optic measurement, excitation 545 nm, emission 600 nm, fixed gain: 800). Every experiment was performed in duplicates with at least three technical replicates. Normalization was performed against conditions, where cells were not treated with TG2 inhibitors.

[2] = target: T2, TG2 in the intestinal lamina propria (Homo sapiens, UniProt P21980); test: TG2 activity in cryosections of duodenal biopsies from CD patients (5BP, confocal microscopy); assay type: biochemical; conditions: 1 h before 5BP, mean ± SD, n = 6 patients
T2 construct: from tissue; host or cells: duodenal biopsies from celiac disease patients (unfixed 400 nm cryosections, lamina propria)
T2 sequence (P21980 1-687): T1 sequence (P21980 1-687)
Description: For immunofluorescence microscopic investigation of transglutaminase activity, only biopsies with minor macroscopic inflammatory signs were used. After endoscopy, biopsies were immediately washed three times in PBS and cryopreserved in polyvinylpyrrolidone sucrose at 4 °C overnight. Biopsies were mounted on specimen holders using Tissue-Tek O.C.T (Sakura Finetek, Staufen im Breisgau, Germany) compound and frozen in liquid nitrogen. For evaluation of transglutaminase activity by the post-embedding procedure, 400 nm cryosections were obtained using a cryo-ultramicrotome (Leica EM UC6, Leica, Wetzlar, Germany) and mounted on class cover slides. After three brief washes with PBS, tissue sections were incubated with the indicated concentrations of the inhibitors for 1 h in tris buffer. Then, the TG2 substrate 5BP was incubated for 1 h at 37 °C in tris buffer containing DTT at the indicated concentration. Slides were washed three times in PBS, fixed in 4% paraformaldehyde (10 min), permeabilized with 0.5% Triton (10 min) and incubated with blocking solution (0.1% cold water fish skin gelatin + 5% BSA + 5% goat serum, 10 min). Afterwards, a rabbit polyclonal antibody directed against human TG2 (Kan5, kindly provided by Dr T. Mothes, Institute of Laboratory Medicine, University Hospital Leipzig, Germany) was applied at 1:200 dilution in blocking solution overnight at 4 °C. After three washing steps (each 5 min) with PBS, Alexa Fluor-555-conjugated secondary antibody (goat-anti-rabbit, 1:200, Thermo Fisher Scientific) and Alexa Fluor-488-conjugated streptavidin (2 µg/mL, Thermo Fisher Scientific) were incubated at room temperature in the dark for 1 h. After three washes with PBS, samples were covered in ProLong Gold antifade mountant (Thermo Fisher Scientific) and sealed with clear nail polish. Sealed slides were stored in the dark at 4 °C until microscopy.
Imaging was done using a confocal laser scanning microscope (TE2000-E, Nikon, Langen, Germany) and a 60× Plan Apo (NA 1.41) immersion oil objective. The detailed acquisition settings and the corresponding macro (Image J [46]) for image processing can be accessed in the Supplementary Materials methods (S1). Five images per patient where quantified. For quantitation, mean fluorescence intensity of TG2 activity (488 nm channel) was normalized to TG2 expression (555 nm channel) within the intestinal lamina propria.

[3] = up to a concentration of 100 µM
[4] = 100 µM inhibitor, untreated 0.94 ± 0.26 (ERW1041) or 0.91 ± 0.28 (PX-12)

Row | TG2-mediated cross-linking of PTG ([1]; 10 µM inhibitor) [%] | TG2-mediated cross-linking of PTG ([1]; 100 µM inhibitor) [%] | TG2 activity normalized against TG2 expression in the lamina propria ([2]; 1 µM inhibitor, untreated 0.94 ± 0.26) | TG2 activity normalized against TG2 expression in the lamina propria [2, 4] | reduction of enzymatic modification of gliadin ([1]; at 10 µM and 100 µM) | Structure (SMILES) | cell viability (Caco-2 cells; 200 µM and 500 µM) | cell viability (Caco-2 cells; [3])
1 | 48 ± 8 | 11 ± 2 | 0.58 ± 0.27 | 0.31 ± 0.17 | – | O=C(NC[C@@H]1CC(Br)=NO1)[C@@H]1CCCN1C(=O)OCc1cnc2ccccc2c1 [ERW1041] | significantly reduced cell viability | did not affect cell viability
2 | 15 ± 3 | 5 ± 1 | – | 0.44 ± 0.21 | more than 80% | CCC(C)SSc1ncc[nH]1 (stereo not drawn) [PX-12, 2-[(1-methylpropyl)dithio]-1H-imidazole] | significantly reduced cell viability | did not affect cell viability
